Measured values published in patent US20260364214A1, “MULTIVALENT FIBROBLAST ACTIVATION PROTEIN LIGANDS FOR TARGETED DELIVERY APPLICATIONS” (Philochem AG, priority 2022, published 2026).

Biological target: T1, recombinant hFAP (Homo sapiens, UniProt Q12884)
T1 sequence (Q12884 26-760 limits assumed): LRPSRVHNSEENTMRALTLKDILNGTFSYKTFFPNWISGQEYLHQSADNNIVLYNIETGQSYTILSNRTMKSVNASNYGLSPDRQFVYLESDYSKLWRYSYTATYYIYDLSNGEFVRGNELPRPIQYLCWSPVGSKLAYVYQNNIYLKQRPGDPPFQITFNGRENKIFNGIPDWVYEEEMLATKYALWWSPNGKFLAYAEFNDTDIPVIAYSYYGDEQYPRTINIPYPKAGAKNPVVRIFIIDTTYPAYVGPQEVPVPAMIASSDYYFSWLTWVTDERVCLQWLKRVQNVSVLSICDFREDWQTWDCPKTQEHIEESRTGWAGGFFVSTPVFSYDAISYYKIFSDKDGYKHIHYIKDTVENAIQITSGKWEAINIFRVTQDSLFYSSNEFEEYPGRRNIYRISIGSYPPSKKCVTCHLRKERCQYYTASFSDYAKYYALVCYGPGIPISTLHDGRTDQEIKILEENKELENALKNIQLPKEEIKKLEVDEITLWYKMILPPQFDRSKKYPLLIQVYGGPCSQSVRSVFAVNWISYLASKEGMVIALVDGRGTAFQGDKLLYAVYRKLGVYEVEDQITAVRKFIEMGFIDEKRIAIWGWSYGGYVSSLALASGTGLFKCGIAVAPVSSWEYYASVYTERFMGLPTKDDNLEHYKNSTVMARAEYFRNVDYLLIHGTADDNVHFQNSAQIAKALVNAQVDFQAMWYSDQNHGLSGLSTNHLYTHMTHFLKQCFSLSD
Assay: hFAP inhibition assay (Z-Gly-Pro-AMC substrate)
Assay type: biochemical
Details: for IC50: Z-Gly-Pro-AMC 20 μM, protein 66 μM, pH 7.4, room temperature; for IC50 / inhibitory activity, comparison in words: recombinant hFAP
Procedure: (§1) Enzymatic activity of hFAP on the Z-Gly-Pro-AMC substrate was measured at room temperature on a microtiter plate reader, monitoring the fluorescence at an excitation wavelength of 360 nm and an emission wavelength of 465 nm. The reaction mixture contained substrate (20 μM), protein (66 μM, constant), assay buffer (50 mM Tris, 100 mM NaCl, and 1 mM EDTA, pH=7.4), and inhibitors with serial dilution from 167 nM to 80 fM, 1:2 in a total volume of 20 μL. Experiments were performed in triplicate, and the mean fluorescence values were fitted using Prism 7. The value is defined as the concentration of inhibitor required to reduce the enzyme activity by 50% after addition of the substrate [FIG. 1 and FIG. 8].
According to the same procedure, further comparative inhibition assays with trimeric binders having inter alia different lengths of linker group B and/or different payload groups C were performed with compounds Tri-ESV6-ValCit-MMAE (14), Tri-ESV6-linker-DOTAGA (13) and diastereoisomers of Tri-ESV6-DOTAGA (11, 12) [FIG. 18]. Comparative hFAP inhibition assays with tetravalent binders 10 and 29 were also performed [FIG. 20].
as §1, with “substrate.” for “substrate [FIG. 1 and FIG. 8].”
as §1, with “e) Inhibition assay with Tri-ESV6-DOTAGA, Tetra-ESV6-DOTAGA, Hexa-ESV6-DOTAGA, Octa-ESV6-DOTAGA, ESV6-L-DOTAGA and BI-ESV6-L-DOTAGA. Enzymatic” for “Enzymatic”, “substrate.” for “substrate [FIG. 1 and FIG. 8].”

SMILES	IC50	IC50 / inhibitory activity, comparison in words
N#C[C@@H]1CC(F)(F)CN1C(=O)CNC(=O)c1ccnc2c(NC(=O)CCC(=O)NCCOCCOCCOCCOCCOCCOCCC(=O)NCCNC(=O)CCOCC(COCCC(=O)NCCNC(=O)CCOCCOCCOCCOCCOCCOCCNC(=O)CCC(=O)Nc3cccc4c(C(=O)NCC(=O)N5CC(F)(F)C[C@H]5C#N)ccnc34)(COCCC(=O)NCCNC(=O)CCOCCOCCOCCOCCOCCOCCNC(=O)CCC(=O)Nc3cccc4c(C(=O)NCC(=O)N5CC(F)(F)C[C@H]5C#N)ccnc34)NC(=O)CCC(C(=O)O)N3CCN(CC(=O)O)CCN(CC(=O)O)CCN(CC(=O)O)CC3)cccc12 (stereo partly shown) [Tri-ESV6-PEG6-DOTAGA]	0.273 nM	–
N#C[C@@H]1CC(F)(F)CN1C(=O)CNC(=O)c1ccnc2c(NC(=O)CCC(=O)NCCNC(=O)CCOCCNC(=O)CCC(C(=O)O)N3CCN(CC(=O)O)CCN(CC(=O)O)CCN(CC(=O)O)CC3)cccc12 (stereo partly drawn) [ESV6-L-DOTAGA]	–	IC50 comparable to the ones of original derivatives
N#C[C@@H]1CC(F)(F)CN1C(=O)CNC(=O)c1ccnc2c(NC(=O)CCC(=O)NCCOCCOCCOCCOCCOCCOCCOCCOCCC(=O)NCCNC(=O)CCOCC(COCCC(=O)NCCNC(=O)CCOCCOCCOCCOCCOCCOCCOCCOCCNC(=O)CCC(=O)Nc3cccc4c(C(=O)NCC(=O)N5CC(F)(F)C[C@H]5C#N)ccnc34)(COCCC(=O)NCCNC(=O)CCOCCOCCOCCOCCOCCOCCOCCOCCNC(=O)CCC(=O)Nc3cccc4c(C(=O)NCC(=O)N5CC(F)(F)C[C@H]5C#N)ccnc34)NC(=O)CCC(C(=O)O)N3CCN(CC(=O)O)CCN(CC(=O)O)CCN(CC(=O)O)CC3)cccc12 (stereo partly shown) [Tri-ESV6-PEG8-DOTAGA]	1.1 nM	–
N#C[C@@H]1CC(F)(F)CN1C(=O)CNC(=O)c1ccnc2c(NC(=O)CCC(=O)NCCNC(=O)CCOCC(COCCC(=O)NCCNC(=O)CCC(=O)Nc3cccc4c(C(=O)NCC(=O)N5CC(F)(F)C[C@H]5C#N)ccnc34)NC(=O)CCOCC(COCCC(=O)NC(COCCC(=O)NCCNC(=O)CCC(=O)Nc3cccc4c(C(=O)NCC(=O)N5CC(F)(F)C[C@H]5C#N)ccnc34)COCCC(=O)NCCNC(=O)CCC(=O)Nc3cccc4c(C(=O)NCC(=O)N5CC(F)(F)C[C@H]5C#N)ccnc34)NC(=O)CCC(C(=O)O)N3CCN(CC(=O)O)CCN(CC(=O)O)CCN(CC(=O)O)CC3)cccc12 (stereo partly shown) [Tetra-ESV6-DOTAGA]	–	directly proportional to the valency until Tetra-ESV6-DOTAGA
N#C[C@@H]1CC(F)(F)CN1C(=O)CNC(=O)c1ccnc2c(NC(=O)CCC(=O)NCCCCC(NC(=O)CCC(=O)Nc3cccc4c(C(=O)NCC(=O)N5CC(F)(F)C[C@H]5C#N)ccnc34)C(=O)NCCNC(=O)CCC(C(=O)O)N3CCN(CC(=O)O)CCN(CC(=O)O)CCN(CC(=O)O)CC3)cccc12 (stereo partly shown) [Bi-ESV6-DOTAGA, reference compound]	–	IC50 comparable to the ones of original derivatives
N#C[C@@H]1CC(F)(F)CN1C(=O)CNC(=O)c1ccnc2c(NC(=O)CCC(=O)NCCOCCOCCC(=O)NCCNC(=O)CCOCC(COCCC(=O)NCCNC(=O)CCOCCOCCNC(=O)CCC(=O)Nc3cccc4c(C(=O)NCC(=O)N5CC(F)(F)C[C@H]5C#N)ccnc34)(COCCC(=O)NCCNC(=O)CCOCCOCCNC(=O)CCC(=O)Nc3cccc4c(C(=O)NCC(=O)N5CC(F)(F)C[C@H]5C#N)ccnc34)NC(=O)CCC(C(=O)O)N3CCN(CC(=O)O)CCN(CC(=O)O)CCN(CC(=O)O)CC3)cccc12 (stereo partly shown) [Tri-ESV6-PEG2-DOTAGA]	0.038 nM	–
N#C[C@@H]1CC(F)(F)CN1C(=O)CNC(=O)c1ccnc2c(NC(=O)CCC(=O)NCCOCCOCCOCCOCCC(=O)NCCNC(=O)CCOCC(COCCC(=O)NCCNC(=O)CCOCCOCCOCCOCCNC(=O)CCC(=O)Nc3cccc4c(C(=O)NCC(=O)N5CC(F)(F)C[C@H]5C#N)ccnc34)(COCCC(=O)NCCNC(=O)CCOCCOCCOCCOCCNC(=O)CCC(=O)Nc3cccc4c(C(=O)NCC(=O)N5CC(F)(F)C[C@H]5C#N)ccnc34)NC(=O)CCC(C(=O)O)N3CCN(CC(=O)O)CCN(CC(=O)O)CCN(CC(=O)O)CC3)cccc12 (stereo partly shown) [Tri-ESV6-PEG4-DOTAGA]	0.126 nM	–
